The record followed here is article PMC8179002, “Inhibitors of thiol-mediated uptake” (Chemical Science, 2020).

Test [1] deals with cellular uptake of 2 in HeLa Kyoto cells. Kind of test: cells. Format: cell-based.
Test [2] has as its system cellular uptake of 1 in HeLa Kyoto cells. As to the kind of experiment: cells. The note with it: for IC50: read-out: IC50, inhibition of cellular uptake of 1; for minimal effective concentration: read-out: MIC, inhibition of cellular uptake of 1; for MIC (concentration that causes ∼15% reduction of reporter uptake), against reporter 1: pre-incubation time not given (Fig. 2: 1 h pre-incubation, 30 min with reporter; some 15 min). Type of test: cell-based. An outline of the steps:
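HeLa Kyoto cells were pre-incubated with inhibitors at varying concentrations and times, washed, then given reporter 1 at 10 μM final for 30 min at 37°C; alternatively, inhibitors were kept during reporter exposure. Hoechst/PI staining and 10x high-content imaging gave mean intracellular fluorescence per cell and viability from PI-negative nuclei.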

[3] abbreviates: HeLa Kyoto, HeLa, tpre 4 h with inhibitor, removal, tinc 0.5 h with 2 (10 µM), read-out: IC50, inhibition of cellular uptake of 2.
[4] abbreviates: HeLa Kyoto, HeLa, tpre 6 h with FBS, removal, tinc 0.5 h with 2 (10 µM), read-out: IC50, inhibition of cellular uptake of 2.
The mark [5] stands for this setting: HeLa, tpre 0.5 h, then tco 0.5 h co-incubation of inhibitor and 2 (10 µM).
Setting [6] is: HeLa, tpre 1 h with inhibitor, removal, tinc 0.5 h with 2 (10 µM).
The mark [7] stands for this setting: HeLa, tpre 4 h with inhibitor, removal, tinc 0.5 h with 2 (10 µM).
Setting [8] is: HeLa, tpre 6 h with FBS, removal, tinc 0.5 h with 2 (10 µM).
[9] abbreviates: HeLa Kyoto, 0.5 h, HeLa, tpre 0.5 h, then tco 0.5 h co-incubation of inhibitor and 1 (10 µM).
Where [10] appears, read: HeLa Kyoto, 0.5 h, HeLa, tpre 0.5 h with inhibitor, removal, tinc 0.5 h with 1 (10 µM).
Where [11] appears, read: HeLa Kyoto, 0.5 h, HeLa, tpre 5.5 h with FBS, then tco 0.5 h co-incubation of inhibitor and 1 (10 µM).
Setting [12] is: HeLa Kyoto, 0.5 h, HeLa, tpre 23.5 h with FBS, then tco 0.5 h co-incubation of inhibitor and 1 (10 µM).
[13] abbreviates: HeLa Kyoto, 1 h, HeLa, tpre 1 h with inhibitor, removal, tinc 0.5 h with 1 (10 µM).
[14] abbreviates: HeLa Kyoto, 2 h, HeLa, tpre 2 h with inhibitor, removal, tinc 0.5 h with 1 (10 µM).
[15] abbreviates: HeLa Kyoto, 4 h, HeLa, tpre 4 h with inhibitor, removal, tinc 0.5 h with 1 (10 µM).
Where [16] appears, read: HeLa Kyoto, HeLa, tpre 1 h with inhibitor, removal, tinc 0.5 h with 1 (10 µM).
Setting [17] is: HeLa Kyoto, HeLa, tpre 2 h with inhibitor, removal, tinc 0.5 h with 1 (10 µM).
Setting [18] is: HeLa Kyoto, HeLa, tpre 4 h with inhibitor, removal, tinc 0.5 h with 1 (10 µM).
Where [19] appears, read: HeLa Kyoto, HeLa, tpre 5.5 h with FBS, then tco 0.5 h co-incubation of inhibitor and 1 (10 µM).
Setting [20] is: HeLa Kyoto, HeLa, tpre 23.5 h with FBS, then tco 0.5 h co-incubation of inhibitor and 1 (10 µM).
[21] abbreviates: HeLa Kyoto, read-out: IC50, inhibition of cellular uptake of 2, HeLa, tpre 4 h with inhibitor, removal, tinc 0.5 h with 2 (10 µM).
Setting [22] is: HeLa, tpre 23.5 h with FBS, then tco 0.5 h co-incubation of inhibitor and 2 (10 µM).

≈ marks a conversion by molar mass, not a printed value. Where two headings read alike, the source gives them in different places. Bridge positions count the residues as written; N and C are the ends. Peptide text beside a SMILES is read from it.

In general, IC50 refers to the concentration that inhibits the measured activity by half. Turning to `CCN1C(=O)C2SSC1C(=O)N2CC(=O)O` (centres unmarked) [compound 4], the IC50 in test [1] (HeLa Kyoto, 0.5 h, HeLa, tpre 0.5 h, then tco 0.5 h co-incubation of inhibitor and 2 (10 µM), read-out: IC50, inhibition of cellular uptake of 2) was over 20 µM; in test [1] (HeLa Kyoto, HeLa, tpre 1 h with inhibitor, removal, tinc 0.5 h with 2 (10 µM), read-out: IC50, inhibition of cellular uptake of 2), over 20 µM; in test [1] (setting [3]) it was over 2 µM; in test [1] (setting [4]), over 100 µM; in test [2] (setting [9]), 2 ± 0.2 µM; in test [2] (setting [10]) it was 4.4 ± 1.3 µM. Besides, the IC50 in test [2] (setting [16]) came out at 1.1 ± 0.1 µM; in test [2] (setting [17]), 1.5 ± 0.1 µM; in test [2] (setting [18]), 2.1 ± 0.2 µM; in test [2] (setting [19]), 4.9 ± 0.5 µM; in test [2] (setting [20]), 66 ± 14 µM. For the same molecule, the “MIC, inhibition of cellular uptake of 2” value is given as 20 µM in test [1] (setting [5]), over 20 µM in test [1] (setting [6]), over 2 µM in test [1] (setting [7]) and 80 µM in test [1] (setting [8]). Moreover, the minimal effective concentration in test [2] (setting [9]) was 0.3 µM; in test [2] (setting [10]), under 0.1 µM; in test [2] (setting [11]) it was 0.3 µM; in test [2] (setting [12]), 8.1 µM; in test [2] (setting [13]) it was 0.1 µM; in test [2] (setting [14]), 0.1 µM. In addition, the minimal effective concentration in test [2] (setting [15]) was determined as 0.1 µM.
With `O=C(O)CNC(=O)c1ccc2c(c1)SSSSS2` [compound 6], the IC50 in test [1] (HeLa Kyoto, 0.5 h, read-out: IC50, inhibition of cellular uptake of 2, HeLa, tpre 0.5 h, then tco 0.5 h co-incubation of inhibitor and 2 (10 µM)) was over 20 µM; in test [1] (setting [21]), over 10 µM; in test [1] (HeLa Kyoto, read-out: IC50, inhibition of cellular uptake of 2, HeLa, tpre 6 h with FBS, removal, tinc 0.5 h with 2 (10 µM)) it was over 100 µM; in test [2] (setting [9]), 5.1 ± 0.3 µM; in test [2] (setting [10]), 93 ± 28 µM; in test [2] (setting [16]), 35 ± 9 µM. For the same molecule, the IC50 in test [2] (setting [17]) was 23 ± 6 µM; in test [2] (setting [18]), 24 ± 5 µM; in test [2] (setting [19]), 20 ± 1 µM; in test [2] (setting [20]) it was over 20 µM. The “MIC against reporter 2” value in test [1] (HeLa, longer pre-incubation (Fig. 2: 4 h pre-incubation)) came to 4 µM (≈ 1.35 µg/mL). Further, the “MIC, inhibition of cellular uptake of 2” value in test [1] (setting [5]) is given as over 20 µM; in test [1] (setting [7]), 4 µM; in test [1] (setting [8]), 60 µM. The minimal effective concentration in test [2] (setting [9]) stood at 0.5 µM; in test [2] (setting [10]), 0.3 µM; in test [2] (setting [11]), 5 µM; in test [2] (setting [12]), 12 µM; in test [2] (setting [13]), 0.3 µM; in test [2] (setting [14]), 0.4 µM. Moreover, the minimal effective concentration in test [2] (setting [15]) is 0.4 µM. In test [2] (HeLa), the “MIC (concentration that causes ∼15% reduction of reporter uptake), against reporter 1” value is recorded as “≈ 0.3 μM”.
In the case of `O=C(CN1C(=O)C2SSC1C(=O)N2CCOc1ccccc1)NCC(=O)OC[C@H]1OC(O)[C@H](O)[C@@H](O)[C@@H]1O` (some centres unmarked) [compound 7], the IC50 is over 100 µM in test [1] (setting [3]); over 200 µM in test [1] (setting [4]); 41 ± 4 µM in test [1] (HeLa Kyoto, HeLa, tpre 23.5 h with FBS, then tco 0.5 h co-incubation of inhibitor and 2 (10 µM), read-out: IC50, inhibition of cellular uptake of 2); 23 ± 4 µM in test [2] (setting [10]); 27 ± 4 µM in test [2] (setting [16]); 15 ± 1 µM in test [2] (setting [17]). Besides, the IC50 was 42 ± 4 µM in test [2] (setting [19]) and over 100 µM in test [2] (setting [20]). The “MIC, inhibition of cellular uptake of 2” value in test [1] (setting [7]) turned out to be 70 µM; in test [1] (setting [8]), 180 µM; in test [1] (setting [22]) it was 15 µM. In addition, the minimal effective concentration in test [2] (setting [10]) came to 0.5 µM; in test [2] (setting [11]) it was 6 µM; in test [2] (setting [12]), 54 µM; in test [2] (setting [13]), 0.5 µM; in test [2] (setting [14]) it was 0.2 µM. For the same molecule, in test [2] (HeLa), the “MIC (concentration that causes ∼15% reduction of reporter uptake), against reporter 1” value is given as “≈ 0.5 μM”.
As for `O=C(O)CC[C@H](NC(=O)CN1C(=O)C2SSC1C(=O)N2CCOc1ccccc1)C(=O)O` (some centres unmarked) [compound 9], the IC50 in test [1] (setting [3]) is over 100 µM; in test [1] (setting [4]) it was over 200 µM; in test [2] (setting [10]), 89 ± 9 µM; in test [2] (setting [16]), 86 ± 13 µM; in test [2] (setting [17]), over 100 µM. The entries for the “MIC, inhibition of cellular uptake of 2” value in test [1] (setting [7]) and in test [1] (setting [8]) were 60 µM and 80 µM, respectively. The minimal effective concentration in test [2] (setting [10]) came out at 15 µM; in test [2] (setting [13]) it was 7 µM; in test [2] (setting [14]) it was 7 µM.
On to `O=C(O)CC[C@H](NC(=O)CCCCC1CCSS1(=O)=O)C(=O)O` (some centres unmarked) [compound 15], for which the IC50 in test [1] (setting [21]) is over 500 µM; in test [1] (HeLa Kyoto, read-out: IC50, inhibition of cellular uptake of 2, HeLa, tpre 23.5 h with FBS, then tco 0.5 h co-incubation of inhibitor and 2 (10 µM)), over 500 µM; in test [2] (setting [10]), 407 ± 49 µM; in test [2] (setting [16]) it was 306 ± 30 µM; in test [2] (setting [17]), 298 ± 31 µM; in test [2] (setting [19]) it was 258 ± 33 µM. Also, the IC50 in test [2] (setting [20]) was determined as 219 ± 16 µM. In addition, the “MIC, inhibition of cellular uptake of 2” value is given as 150 µM in test [1] (setting [7]) and under 20 µM in test [1] (setting [22]). For the same molecule, the minimal effective concentration in test [2] (setting [10]) is 100 µM; in test [2] (setting [11]), 65 µM; in test [2] (setting [12]), 55 µM; in test [2] (setting [13]) it was 50 µM; in test [2] (setting [14]), 50 µM.
Regarding `N[C@H]1CSSC[C@@H](C(=O)NCC(=O)O)NC(=O)[C@H](CCC(=O)O)NC1=O` [compound 18] (H-CECG-OH; disulfide 1-3), the “MIC, inhibition of cellular uptake of 2” value in test [1] (setting [5]) was found to be 4 µM; in test [1] (setting [6]), 300 µM; in test [1] (HeLa, tpre 1.5 h, then tco 0.5 h co-incubation of inhibitor and 2 (10 µM)), 4 µM; in test [1] (HeLa, tpre 2 h with inhibitor, removal, tinc 0.5 h with 2 (10 µM)), 200 µM; in test [1] (setting [7]), 100 µM. Also, the IC50 in test [1] (HeLa, tpre 0.5 h, then tco 0.5 h co-incubation of inhibitor and 2 (10 µM), read-out: IC50, inhibition of cellular uptake of 2) was 44 ± 5 µM; in test [1] (HeLa, tpre 1 h with inhibitor, removal, tinc 0.5 h with 2 (10 µM), read-out: IC50, inhibition of cellular uptake of 2) it was over 1000 µM; in test [1] (HeLa, tpre 1.5 h, then tco 0.5 h co-incubation of inhibitor and 2 (10 µM), read-out: IC50, inhibition of cellular uptake of 2), 41 ± 4 µM; in test [1] (HeLa, tpre 2 h with inhibitor, removal, tinc 0.5 h with 2 (10 µM), read-out: IC50, inhibition of cellular uptake of 2) it was over 1000 µM; in test [1] (HeLa, tpre 4 h with inhibitor, removal, tinc 0.5 h with 2 (10 µM), read-out: IC50, inhibition of cellular uptake of 2), 859 ± 140 µM; in test [2] (HeLa, tpre 0.5 h, then tco 0.5 h co-incubation of inhibitor and 1 (10 µM)), over 500 µM. Further, the IC50 in test [2] (HeLa, tpre 0.5 h with inhibitor, removal, tinc 0.5 h with 1 (10 µM)) was over 2000 µM; in test [2] (HeLa, tpre 1 h with inhibitor, removal, tinc 0.5 h with 1 (10 µM)), over 2000 µM; in test [2] (HeLa, tpre 2 h with inhibitor, removal, tinc 0.5 h with 1 (10 µM)), over 2000 µM; in test [2] (HeLa, tpre 5.5 h with FBS, then tco 0.5 h co-incubation of inhibitor and 1 (10 µM)), 1000 ± 110 µM; in test [2] (HeLa, tpre 23.5 h with FBS, then tco 0.5 h co-incubation of inhibitor and 1 (10 µM)), 1000 ± 40 µM. In addition, the “MIC against reporter 2” value in test [1] (HeLa, upon co-incubation) is listed as “≈ 5 μM”. For the same molecule, the minimal effective concentration in test [2] (2 h) turned out to be 200 µM. The “MIC (concentration that causes ∼15% reduction of reporter uptake), against reporter 1” value in test [2] (HeLa) is “≈ 300 μM”.
